Data on 2 compounds can be found in ChEMBL document CHEMBL4184139, “Adamantyl- and other polycyclic cage-based conjugates of desferrioxamine B (DFOB) for treating iron-mediated toxicity in cell models of Parkinson's disease” (Bioorg Med Chem Lett, 2017).

The source made the active and inactive calls. The calls are words filed in the database; no cut-off is given here.

System in one series: not listed separately
Put plainly: Binding affinity to Fe3+ assessed as [M+2H]+ adduct formation by LC-MS/MS analysis.
Conditions: not given
Regarding `CC(=O)N(O)CCCCCNC(=O)CCC(=O)N(O)CCCCCNC(=O)CCC(=O)N(O)CCCCCNC(=O)C12CC3CC(CC(Br)(C3)C1)C2`, the outcome was Active.

With `CC(=O)N(O)CCCCCNC(=O)CCC(=O)N(O)CCCCCNC(=O)CCC(=O)N(O)CCCCCNC(=O)[C@H]1C[C@H]2CC[C@H]1C2` (relative stereo), the outcome was Active.

The next series relates to SK-N-BE(2)-M17. Put plainly: Cytoprotection against H2O2-induced cell death in human SK-N-BE(2)-M17 cells assessed as increase in cell viability at 100 uM pretreated for 2 hrs followed by 1 mM H2O2 addition measured after 24 hrs by LDH assay. Type of series: functional, cell-based.
Conditions: not given
On to `CC(=O)N(O)CCCCCNC(=O)CCC(=O)N(O)CCCCCNC(=O)CCC(=O)N(O)CCCCCNC(=O)C12CC3CC(CC(Br)(C3)C1)C2`, for which the outcome was inactive.

With `CC(=O)N(O)CCCCCNC(=O)CCC(=O)N(O)CCCCCNC(=O)CCC(=O)N(O)CCCCCNC(=O)[C@H]1C[C@H]2CC[C@H]1C2` (relative stereo), the result was Active.

In another series the test system is SK-N-BE(2)-M17. Put plainly: Cytoprotection against PQ-induced cell death in human SK-N-BE(2)-M17 cells assessed as increase in cell viability at 100 uM treated post 200 uM Fecl3 and 1 mM PQ treatment measured after 24 hrs by LDH assay. Type of series: functional, cell-based.
Conditions: not given
In the case of `CC(=O)N(O)CCCCCNC(=O)CCC(=O)N(O)CCCCCNC(=O)CCC(=O)N(O)CCCCCNC(=O)[C@H]1C[C@H]2CC[C@H]1C2` (relative stereo), the result was Active.

The next series has as its system Astrocyte. Put plainly: Cytoprotection against H2O2-induced cell death in BSO pretreated C57BL6/J mouse brain primary astrocytes assessed as increase in cell viability at 10 uM pretreated for 2 hrs followed by H2O2 addition measured after 24 hrs by MTT assay.
Conditions: not given
Type of series: functional, cell-based. (Formazan colour is commonly taken as a measure of viable cells.)
Take `CC(=O)N(O)CCCCCNC(=O)CCC(=O)N(O)CCCCCNC(=O)CCC(=O)N(O)CCCCCNC(=O)C12CC3CC(CC(Br)(C3)C1)C2`: the result was Active.

The next series concerns SK-N-BE(2)-M17. Put plainly: Cytoprotection against H2O2-induced cell death in human SK-N-BE(2)-M17 cells assessed as increase in cell viability at 100 uM pretreated for 2 hrs followed by 1 mM H2O2 addition measured after 24 hrs by MTT assay. Type of series: functional, cell-based.
Conditions: not given
For `CC(=O)N(O)CCCCCNC(=O)CCC(=O)N(O)CCCCCNC(=O)CCC(=O)N(O)CCCCCNC(=O)C12CC3CC(CC(Br)(C3)C1)C2`, the result was inactive.

As for `CC(=O)N(O)CCCCCNC(=O)CCC(=O)N(O)CCCCCNC(=O)CCC(=O)N(O)CCCCCNC(=O)[C@H]1C[C@H]2CC[C@H]1C2` (relative stereo), the result was Active.

Another series has as its system SK-N-BE(2)-M17. Put plainly: Cytoprotection against PQ-induced cell death in human SK-N-BE(2)-M17 cells assessed as increase in cell viability at 100 uM treated 2 hrs post 2 mM PQ treatment measured after 24 hrs by LDH assay. Format: functional, cell-based.
Conditions: not given
For the compound `CC(=O)N(O)CCCCCNC(=O)CCC(=O)N(O)CCCCCNC(=O)CCC(=O)N(O)CCCCCNC(=O)C12CC3CC(CC(Br)(C3)C1)C2`, the outcome was inactive.

For `CC(=O)N(O)CCCCCNC(=O)CCC(=O)N(O)CCCCCNC(=O)CCC(=O)N(O)CCCCCNC(=O)[C@H]1C[C@H]2CC[C@H]1C2` (relative stereo), the result was Active.

System in the next series: not listed separately
Put plainly: Octanol-water partition coefficient, log P of the compound at 1 mg by RP-HPLC analysis. Type of series: physicochemical.
Conditions: not given
The logP is the decadic logarithm of the partition coefficient of the neutral form, usually between octanol and water. High values mean a more lipophilic compound, low ones a more hydrophilic compound. In the case of `CC(=O)N(O)CCCCCNC(=O)CCC(=O)N(O)CCCCCNC(=O)CCC(=O)N(O)CCCCCNC(=O)C12CC3CC(CC(Br)(C3)C1)C2`, the logP is 1.9.

For the compound `CC(=O)N(O)CCCCCNC(=O)CCC(=O)N(O)CCCCCNC(=O)CCC(=O)N(O)CCCCCNC(=O)[C@H]1C[C@H]2CC[C@H]1C2` (relative stereo), the logP was found to be 0.55.

A further series relates to SK-N-BE(2)-M17. Put plainly: Cytoprotection against PQ-induced cell death in human SK-N-BE(2)-M17 cells assessed as increase in cell viability at 100 uM treated post 200 uM Fecl3 and 1 mM PQ treatment measured after 24 hrs by MTT assay. Format: functional, cell-based.
Conditions: not given
For `CC(=O)N(O)CCCCCNC(=O)CCC(=O)N(O)CCCCCNC(=O)CCC(=O)N(O)CCCCCNC(=O)[C@H]1C[C@H]2CC[C@H]1C2` (relative stereo), the result was Active.

The test system of a further series is SK-N-BE(2)-M17. Put plainly: Cytotoxicity against human SK-N-BE(2)-M17 cells at 100 uM 24 hrs by MTT assay. Type of series: cell-based. Conditions: sk-n-be(2)-m17, 24 h.
Consider `CC(=O)N(O)CCCCCNC(=O)CCC(=O)N(O)CCCCCNC(=O)CCC(=O)N(O)CCCCCNC(=O)C12CC3CC(CC(Br)(C3)C1)C2`, for which the Activity entry is recorded as “Non-Toxic”.

For `CC(=O)N(O)CCCCCNC(=O)CCC(=O)N(O)CCCCCNC(=O)CCC(=O)N(O)CCCCCNC(=O)[C@H]1C[C@H]2CC[C@H]1C2` (relative stereo), the Activity result is on record as “Non-Toxic”.

A further series concerns SK-N-BE(2)-M17. Put plainly: Cytoprotection against PQ-induced cell death in human SK-N-BE(2)-M17 cells assessed as increase in cell viability at 100 uM pretreated for 2 hrs followed by 1 mM PQ addition measured after 24 hrs by LDH assay. Format: functional, cell-based.
Conditions: not given
Turning to `CC(=O)N(O)CCCCCNC(=O)CCC(=O)N(O)CCCCCNC(=O)CCC(=O)N(O)CCCCCNC(=O)C12CC3CC(CC(Br)(C3)C1)C2`, the outcome was inactive.

As for `CC(=O)N(O)CCCCCNC(=O)CCC(=O)N(O)CCCCCNC(=O)CCC(=O)N(O)CCCCCNC(=O)[C@H]1C[C@H]2CC[C@H]1C2` (relative stereo), the result was Active.

System in a further series: not listed separately
Put plainly: Binding affinity to Fe3+ assessed as change in retention time for compound-Fe3+ complex by RP-HPLC analysis relative to free ligand.
Conditions: not given
As for `CC(=O)N(O)CCCCCNC(=O)CCC(=O)N(O)CCCCCNC(=O)CCC(=O)N(O)CCCCCNC(=O)C12CC3CC(CC(Br)(C3)C1)C2`, the Retention time is 0.91 min.

`CC(=O)N(O)CCCCCNC(=O)CCC(=O)N(O)CCCCCNC(=O)CCC(=O)N(O)CCCCCNC(=O)[C@H]1C[C@H]2CC[C@H]1C2` (relative stereo): the Retention time came out at 0.08 min.

Another series relates to SK-N-BE(2)-M17. Put plainly: Cytoprotection against H2O2-induced cell death in human SK-N-BE(2)-M17 cells assessed as increase in cell viability at 100 uM treated 2 hrs post 0.8 mM H2O2 treatment measured after 24 hrs by LDH assay. Format: functional, cell-based.
Conditions: not given
`CC(=O)N(O)CCCCCNC(=O)CCC(=O)N(O)CCCCCNC(=O)CCC(=O)N(O)CCCCCNC(=O)C12CC3CC(CC(Br)(C3)C1)C2`: the result was inactive.

With `CC(=O)N(O)CCCCCNC(=O)CCC(=O)N(O)CCCCCNC(=O)CCC(=O)N(O)CCCCCNC(=O)[C@H]1C[C@H]2CC[C@H]1C2` (relative stereo), the outcome was Active.

The subject of a further series is SK-N-BE(2)-M17. Put plainly: Cytoprotection against H2O2-induced cell death in human SK-N-BE(2)-M17 cells assessed as increase in cell viability at 100 uM treated 2 hrs post 0.8 mM H2O2 treatment measured after 24 hrs by MTT assay.
Conditions: not given
Format: functional, cell-based.
As to `CC(=O)N(O)CCCCCNC(=O)CCC(=O)N(O)CCCCCNC(=O)CCC(=O)N(O)CCCCCNC(=O)C12CC3CC(CC(Br)(C3)C1)C2`, the outcome was inactive.

Consider `CC(=O)N(O)CCCCCNC(=O)CCC(=O)N(O)CCCCCNC(=O)CCC(=O)N(O)CCCCCNC(=O)[C@H]1C[C@H]2CC[C@H]1C2` (relative stereo), for which the outcome was Active.

The next series deals with SK-N-BE(2)-M17. Put plainly: Cytoprotection against PQ-induced cell death in human SK-N-BE(2)-M17 cells assessed as increase in cell viability at 100 uM pretreated for 2 hrs followed by 1 mM PQ addition measured after 24 hrs by MTT assay.
Conditions: not given
Format: functional, cell-based.
As to `CC(=O)N(O)CCCCCNC(=O)CCC(=O)N(O)CCCCCNC(=O)CCC(=O)N(O)CCCCCNC(=O)C12CC3CC(CC(Br)(C3)C1)C2`, the result was inactive.

In the case of `CC(=O)N(O)CCCCCNC(=O)CCC(=O)N(O)CCCCCNC(=O)CCC(=O)N(O)CCCCCNC(=O)[C@H]1C[C@H]2CC[C@H]1C2` (relative stereo), the outcome was Active.

The test system of another series is SK-N-BE(2)-M17. Put plainly: Cytoprotection against PQ-induced cell death in human SK-N-BE(2)-M17 cells assessed as increase in cell viability at 100 uM treated 2 hrs post 2 mM PQ treatment measured after 24 hrs by MTT assay. Format: functional, cell-based.
Conditions: not given
As for `CC(=O)N(O)CCCCCNC(=O)CCC(=O)N(O)CCCCCNC(=O)CCC(=O)N(O)CCCCCNC(=O)C12CC3CC(CC(Br)(C3)C1)C2`, the outcome was inactive.

`CC(=O)N(O)CCCCCNC(=O)CCC(=O)N(O)CCCCCNC(=O)CCC(=O)N(O)CCCCCNC(=O)[C@H]1C[C@H]2CC[C@H]1C2` (relative stereo): the outcome was Active.

For a further series, the system named is SK-N-BE(2)-M17. Put plainly: Cytotoxicity against human SK-N-BE(2)-M17 cells at 100 uM 24 hrs by LDH release assay. Conditions: sk-n-be(2)-m17, 24 h. Type of series: cell-based. A general note: Release of lactate dehydrogenase indicates damage to the cell membrane.
On to `CC(=O)N(O)CCCCCNC(=O)CCC(=O)N(O)CCCCCNC(=O)CCC(=O)N(O)CCCCCNC(=O)C12CC3CC(CC(Br)(C3)C1)C2`, for which the Activity entry is “Non-Toxic”.

With `CC(=O)N(O)CCCCCNC(=O)CCC(=O)N(O)CCCCCNC(=O)CCC(=O)N(O)CCCCCNC(=O)[C@H]1C[C@H]2CC[C@H]1C2` (relative stereo), the Activity result is “Non-Toxic”.

System in another series: not listed separately
Put plainly: Binding affinity to Fe3+ assessed as [M+H]+ adduct formation by LC-MS/MS analysis.
Conditions: not given
Consider `CC(=O)N(O)CCCCCNC(=O)CCC(=O)N(O)CCCCCNC(=O)CCC(=O)N(O)CCCCCNC(=O)C12CC3CC(CC(Br)(C3)C1)C2`, for which the result was Active.

For `CC(=O)N(O)CCCCCNC(=O)CCC(=O)N(O)CCCCCNC(=O)CCC(=O)N(O)CCCCCNC(=O)[C@H]1C[C@H]2CC[C@H]1C2` (relative stereo), the result was Active.
